From patent US9149038B2, “4-amino-6-(heterocyclic)picolinates and 6-amino-2-(heterocyclic)pyrimidine-4-carboxylates and their use as herbicides” (Dow AgroSciences LLC, priority 2013, dated 2015)
Read-outs that look alike come from different tables or passages of the source.

How the values were obtained:
[1] = test system: Key Grass and Sedge Weeds as well as Grass Crops; assay: Post-Emergent Test II: postemergent herbicidal activity, visual rating after 14 d (Table 8); format: in vivo; details: post-emergence, 336 h; for pest or weed control at 35 g/ha: 35 g ai/ha; for pest or weed control at 70 g/ha: 70 g ai/ha; for pest or weed control at 140 g/ha: 140 g ai/ha
How it was run: (§1)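 Track-sprayed young seedlings (first/second true leaf) at 187 L/ha across a 2-fold rate series from the high rate down to 1/16×. Kept in greenhouse at 23-29° C day, subirrigated. Injury rated by eye after 14 d, 0 = no injury, 100 = complete kill.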

[2] = test system: Key Broadleaf Weed and Crop Species; assay: Post-Emergent Test II: postemergent herbicidal activity, visual rating after 14 d (Table 7); format: in vivo; details: post-emergence, 336 h; for pest or weed control at 35 g/ha: 35 g ai/ha; for pest or weed control at 70 g/ha: 70 g ai/ha; for pest or weed control at 140 g/ha: 140 g ai/ha
How it was run: as §1

[3] = barnyardgrass (Echinochloa crus-galli), read-out: Visual Growth Reduction (%) 14 Days After Application ECHCG
[4] = giant foxtail (Setaria faberi), read-out: Visual Growth Reduction (%) 14 Days After Application SETFA
[5] = maize, corn (Zea mays), read-out: Visual Growth Reduction (%) 14 Days After Application ZEAMX
[6] = rice (Oryza sativa), read-out: Visual Growth Reduction (%) 14 Days After Application ORYSA
[7] = wheat, spring (Triticum aestivum), read-out: Visual Growth Reduction (%) 14 Days After Application TRZAS
[8] = yellow nutsedge (Cyperus esculentus), read-out: Visual Growth Reduction (%) 14 Days After Application CYPES
[9] = lambsquarters (Chenopodium album), read-out: Visual Growth Reduction (%) 14 Days After Application CHEAL
[10] = oilseed rape, canola (Brassica napus), read-out: Visual Growth Reduction (%) 14 Days After Application BRSNN
[11] = redroot pigweed (Amaranthus retroflexus), read-out: Visual Growth Reduction (%) 14 Days After Application AMARE
[12] = sunflower (Helianthus annuus), read-out: Visual Growth Reduction (%) 14 Days After Application HELAN
[13] = velvetleaf (Abutilon theophrasti), read-out: Visual Growth Reduction (%) 14 Days After Application ABUTH
[14] = wild poinsettia (Euphorbia heterophylla), read-out: Visual Growth Reduction (%) 14 Days After Application EPHHL

Structure (SMILES): COC(=O)c1nc(-c2cc3c(cc2F)OC(F)(F)O3)nc(N)c1OC [Compound 64]
- pest or weed control at 35 g/ha [1, 3]: 0 to 29%
- pest or weed control at 70 g/ha [1, 3]: 45 to 59%
- pest or weed control at 140 g/ha [1, 3]: 75 to 84%
- pest or weed control at 35 g/ha [1, 4]: 0 to 29%
- pest or weed control at 70 g/ha [1, 4]: 45 to 59%
- pest or weed control at 140 g/ha [1, 4]: 75 to 84%
- pest or weed control at 35 g/ha [1, 5]: 30 to 44%
- pest or weed control at 70 g/ha [1, 5]: 45 to 59%
- pest or weed control at 140 g/ha [1, 5]: 75 to 84%
- pest or weed control at 35 g/ha [1, 6]: 0 to 29%
- pest or weed control at 70 g/ha [1, 6]: 0 to 29%
- pest or weed control at 140 g/ha [1, 6]: 0 to 29%
- pest or weed control at 35 g/ha [1, 7]: 0 to 29%
- pest or weed control at 70 g/ha [1, 7]: 30 to 44%
- pest or weed control at 140 g/ha [1, 7]: 30 to 44%
- pest or weed control at 35 g/ha [1, 8]: 30 to 44%
- pest or weed control at 70 g/ha [1, 8]: 60 to 74%
- pest or weed control at 140 g/ha [1, 8]: 85 to 94%
- pest or weed control at 35 g/ha [2, 9]: 0 to 29%
- pest or weed control at 70 g/ha [2, 9]: 0 to 29%
- pest or weed control at 140 g/ha [2, 9]: 0 to 29%
- pest or weed control at 35 g/ha [2, 10]: 0 to 29%
- pest or weed control at 70 g/ha [2, 10]: 0 to 29%
- pest or weed control at 140 g/ha [2, 10]: 0 to 29%
- pest or weed control at 35 g/ha [2, 11]: 0 to 29%
- pest or weed control at 70 g/ha [2, 11]: 0 to 29%
- pest or weed control at 140 g/ha [2, 11]: 0 to 29%
- pest or weed control at 35 g/ha [2, 12]: 0 to 29%
- pest or weed control at 70 g/ha [2, 12]: 60 to 74%
- pest or weed control at 140 g/ha [2, 12]: 75 to 84%
- pest or weed control at 35 g/ha [2, 13]: 0 to 29%
- pest or weed control at 70 g/ha [2, 13]: 0 to 29%
- pest or weed control at 140 g/ha [2, 13]: 0 to 29%
- pest or weed control at 35 g/ha [2, 14]: 75 to 84%
- pest or weed control at 70 g/ha [2, 14]: 85 to 94%
- pest or weed control at 140 g/ha [2, 14]: 95 to 100%
